In ChEMBL document CHEMBL6134844, “Development of Next-Generation Antimalarial Acridones with Radical Cure Potential” (J Med Chem, 2025):

Legend:
Plasmodium falciparum [1] = assay: Antiplasmodial activity against asexual blood-stage (ABS) CQ-sensitive Plasmodium falciparum D6 infected in human erythrocytes assessed as reduction in fluorescence measured after 72 hrs by Malaria SYBR Green I-based Fluorescence (MSF) assay; assay type: functional, organism-based; conditions: D6, Erythrocyte
Plasmodium falciparum [2] = assay: Antiplasmodial activity against asexual blood-stage (ABS) MDR Plasmodium falciparum Dd2 infected in human erythrocytes assessed as reduction in fluorescence measured after 72 hrs by Malaria SYBR Green I-based Fluorescence (MSF) assay; assay type: functional, organism-based; conditions: Dd2, Erythrocyte
Plasmodium falciparum [3] = assay: Antiplasmodial activity against asexual blood-stage (ABS) ATV-resistant clinical isolate Plasmodium falciparum Tm90-C2B infected in human erythrocytes assessed as reduction in fluorescence measured after 72 hrs by Malaria SYBR Green I-based Fluorescence (MSF) assay; assay type: functional, organism-based; conditions: Erythrocyte
HepG2 = assay: Cytotoxicity against human HepG2 cells assessed as cell viability measured after 48 hrs by MTT assay; assay type: functional, cell-based; conditions: HepG2, 48 h
Plasmodium cynomolgi [4] = assay: Antiplasmodial activity against hypnozoite Plasmodium cynomolgi B strain infected in Macaca mulatta hepatocytes incubated with sporozoite containing salivary gland homogenate obtained from dissected Anopheles dirus mosquitoes (infected with Plasmodium cynomolgi B strain) treatment started on day 4 post infection and continued daily for 4 days into fresh changed media until day 8 assessed as Liver stage (LS) activity by measuring prophylactic mode by immunofluorescent staining analysis; assay type: functional, organism-based; conditions: Hepatocyte
Plasmodium cynomolgi [5] = assay: Antiplasmodial activity against schizont Plasmodium cynomolgi B strain infected in Macaca mulatta hepatocytes incubated with sporozoite containing salivary gland homogenate obtained from dissected Anopheles dirus mosquitoes (infected with Plasmodium cynomolgi B strain) treatment started on day 4 post infection and continued daily for 4 days into fresh changed media until day 8 assessed as Liver stage (LS) activity by measuring prophylactic mode by immunofluorescent staining analysis; assay type: functional, organism-based; conditions: Hepatocyte
Plasmodium cynomolgi [6] = assay: Antiplasmodial activity against hypnozoite Plasmodium cynomolgi B strain infected in Macaca mulatta hepatocytes incubated with sporozoite containing salivary gland homogenate obtained from dissected Anopheles dirus mosquitoes (infected with Plasmodium cynomolgi B strain) treatment started on day 4 post infection and continued daily for 4 days into fresh changed media until day 8 assessed as Liver stage (LS) activity by measuring radical cure mode by immunofluorescent staining analysis; assay type: functional, organism-based; conditions: Hepatocyte
Plasmodium cynomolgi [7] = assay: Antiplasmodial activity against schizont Plasmodium cynomolgi B strain infected in Macaca mulatta hepatocytes incubated with sporozoite containing salivary gland homogenate obtained from dissected Anopheles dirus mosquitoes (infected with Plasmodium cynomolgi B strain) treatment started on day 4 post infection and continued daily for 4 days into fresh changed media until day 8 assessed as Liver stage (LS) activity by measuring radical cure mode by immunofluorescent staining analysis; assay type: functional, organism-based; conditions: Hepatocyte
[8] = Selectivity index, ratio of CC50 for Macaca mulatta hepatocytes to IC50 for antiplasmodial activity against hypnozoite Plasmodium cynomolgi B strain infected in Macaca mulatta hepatocytes incubated with sporozoite containing salivary gland homogenate obtained from dissected Anopheles dirus mosquitoes (infected with Plasmodium cynomolgi B strain) treatment started on day 4 post infection and continued daily for 4 days into fresh changed media until day 8 assessed as Liver stage (LS) activity by measuring prophylactic mode by immunofluorescent staining analysis; assay type: toxicity, cell-based; conditions: rhesus monkey, read-out: Selectivity Index
[9] = Selectivity index, ratio of CC50 for Macaca mulatta hepatocytes to IC50 for antiplasmodial activity against schizont Plasmodium cynomolgi B strain infected in Macaca mulatta hepatocytes incubated with sporozoite containing salivary gland homogenate obtained from dissected Anopheles dirus mosquitoes (infected with Plasmodium cynomolgi B strain) treatment started on day 4 post infection and continued daily for 4 days into fresh changed media until day 8 assessed as Liver stage (LS) activity by measuring prophylactic mode by immunofluorescent staining analysis; assay type: toxicity, cell-based; conditions: rhesus monkey, read-out: Selectivity Index
[10] = Selectivity index, ratio of CC50 for Macaca mulatta hepatocytes to IC50 for antiplasmodial activity against schizont Plasmodium cynomolgi B strain infected in Macaca mulatta hepatocytes incubated with sporozoite containing salivary gland homogenate obtained from dissected Anopheles dirus mosquitoes (infected with Plasmodium cynomolgi B strain) treatment started on day 4 post infection and continued daily for 4 days into fresh changed media until day 8 assessed as Liver stage (LS) activity by measuring radical cure mode by immunofluorescent staining analysis; assay type: toxicity, cell-based; conditions: rhesus monkey, read-out: Selectivity Index
Plasmodium yoelii [11] = assay: In vivo antiplasmodial activity against asexual blood-stage (ABS) Plasmodium yoelii MRA-428 infected in 4-day suppression CF1 mouse model assessed as reduction in parasitemia treated 24 hrs post infection daily measured on day 4; assay type: functional
Plasmodium yoelii [12] = assay: In vivo antiplasmodial activity against asexual blood-stage (ABS) Plasmodium yoelii MRA-428 infected in 4-day suppression CF1 mouse model assessed as reduction in parasitemia by measuring protection at 30 mg/kg, po treated 24 hrs post infection daily measured up to 28 days; assay type: functional, organism-based; conditions: time <= 28.0 day
[13] = Toxicity in CF1 mouse infected with asexual blood-stage (ABS) Plasmodium yoelii MRA-428 assessed as clinical toxicity at 0.3 to 30 mg/kg, po treated 24 hrs post infection measured after 4 days; assay type: organism-based; conditions: in vivo, dose 0.3-30 mg/kg
[14] = Toxicity in CF1 mouse infected with asexual blood-stage (ABS) Plasmodium yoelii MRA-428 assessed as behavioural change at 0.3 to 30 mg/kg, po treated 24 hrs post infection measured after 4 days; assay type: organism-based; conditions: in vivo, dose 0.3-30 mg/kg
Hepatocyte = assay: Cytotoxicity against Macaca mulatta hepatocytes assessed as cell viability measured after 48 hrs by MTT assay; assay type: toxicity, cell-based; conditions: rhesus monkey, 48 h
[15] = human, microsomes, 1 h
[16] = mouse, microsomes, 1 h
[17] = Selectivity index, ratio of CC50 for Macaca mulatta hepatocytes to IC50 for antiplasmodial activity against hypnozoite Plasmodium cynomolgi B strain infected in Macaca mulatta hepatocytes incubated with sporozoite containing salivary gland homogenate obtained from dissected Anopheles dirus mosquitoes (infected with Plasmodium cynomolgi B strain) treatment started on day 4 post infection and continued daily for 4 days into fresh changed media until day 8 assessed as Liver stage (LS) activity by measuring radical cure mode by immunofluorescent staining analysis; assay type: toxicity, cell-based; conditions: rhesus monkey, read-out: Selectivity Index
[18] = Toxicity in CF1 mouse infected with asexual blood-stage (ABS) Plasmodium yoelii MRA-428 assessed as hunching at 0.3 to 30 mg/kg, po treated 24 hrs post infection measured after 4 days; assay type: organism-based; conditions: in vivo, 96 h, dose 0.3-30 mg/kg, time 4 day
[19] = Toxicity in CF1 mouse infected with asexual blood-stage (ABS) Plasmodium yoelii MRA-428 assessed as hyperactivity at 0.3 to 30 mg/kg, po treated 24 hrs post infection measured after 4 days; assay type: organism-based; conditions: in vivo, 96 h, dose 0.3-30 mg/kg, time 4 day
[20] = Toxicity in CF1 mouse infected with asexual blood-stage (ABS) Plasmodium yoelii MRA-428 assessed as lethargy at 0.3 to 30 mg/kg, po treated 24 hrs post infection measured after 4 days; assay type: organism-based; conditions: in vivo, 96 h, dose 0.3-30 mg/kg, time 4 day
[21] = Toxicity in CF1 mouse infected with asexual blood-stage (ABS) Plasmodium yoelii MRA-428 assessed as ruffled hair at 0.3 to 30 mg/kg, po treated 24 hrs post infection measured after 4 days; assay type: organism-based; conditions: in vivo, 96 h, dose 0.3-30 mg/kg, time 4 day
[22] = Toxicity in CF1 mouse infected with asexual blood-stage (ABS) Plasmodium yoelii MRA-428 assessed as weight loss at 0.3 to 30 mg/kg, po treated 24 hrs post infection measured after 4 days; assay type: organism-based; conditions: in vivo, 96 h, dose 0.3-30 mg/kg, time 4 day
Plasmodium berghei [23] = assay: In vivo antiplasmodial activity against luciferase expressing liver stage Plasmodium berghei ANKA MRA-868 sporozoites infected in Albino C57BL/6 mouse model assessed as blood stage infection at 40 mg/kg, po daily measured 72 hrs; assay type: functional, organism-based
Plasmodium berghei [24] = assay: In vivo antiplasmodial activity against luciferase expressing liver stage Plasmodium berghei ANKA MRA-868 sporozoites infected in Albino C57BL/6 mouse model assessed as protection at 10 mg/kg, po daily measured 24 to 72 hrs by real-time In Vivo Imaging System (IVIS); assay type: functional; conditions: time lower 24.0 hrs, time upper […]

| Compound | IC50 (Plasmodium falciparum [1]) [pM] | IC50 (Plasmodium falciparum [2]) [nM] | IC50 (Plasmodium falciparum [3]) [nM] | IC50 (HepG2) [nM] | IC50 (Plasmodium cynomolgi [4]) [nM] | IC50 (Plasmodium cynomolgi [5]) [nM] | IC50 (Plasmodium cynomolgi [6]) [nM] | IC50 (Plasmodium cynomolgi [7]) [nM] | selectivity ratio at 96 h [8] | selectivity ratio at 96 h [9] | selectivity ratio at 96 h [10] | ED90 (Plasmodium yoelii [11]) [mg/kg] | Activity [13] | Activity [14] | CC50 (Hepatocyte) [nM] | t1/2 [15] [h] | CLH [16] [µL/min/mg] | selectivity ratio at 96 h [17] | ED50 (Plasmodium yoelii [11]) [mg/kg] | also measured |
| --- | --- | --- | --- | --- | --- | --- | --- | --- | --- | --- | --- | --- | --- | --- | --- | --- | --- | --- | --- | --- |
| O=c1c2ccc(Oc3ccc(OC(F)(F)F)cc3)cc2[nH]c2cc(F)c(Cl)cc12 | 4380 | 4.35 | 48.4 | > 200000 | 410 | 600 | > 20000 | 6550 | > 48.8 | > 33.3 | > 3.05 | 0.17 | Non-toxic | Non-toxic | > 20000 | > 1 | < 3.125 |  |  | Activity (Plasmodium yoelii [12]): Active; Out Of 4 - 3 Mouse Cured |
| CC(C)(C)OC(=O)N1CCC(Oc2ccc3c(=O)c4c(F)cc(Cl)cc4[nH]c3c2)CC1 | 0.7 | 0.295 | 271 | 59900 | 470 | 50 | 1780 | 670 | 4.62 | 43.4 | 3.24 | 0.72 | Non-toxic | Non-toxic | 2170 | > 1 | 58.5 | 1.22 | 0.34 |  |
| O=c1c2c([nH]c3ccc(Oc4ccc(OC(F)(F)F)cc4)cc13)CCCC2 | 7550 | 13.3 | 29.9 | > 200000 | 3810 | 500 | > 20000 | > 20000 | > 5.25 | > 40 |  | 7.8 | Non-toxic | Non-toxic | > 20000 |  | 56.8 |  | 1.8 | Activity [18]: Non-toxic; Activity [19]: Non-toxic; Activity [20]: Non-toxic; Activity [21]: Non-toxic; Activity [22]: Non-toxic |
| O=c1c2ccc(OCc3ccc(OC(F)(F)F)cc3)cc2[nH]c2cc(Cl)cc(F)c12 | 0.041 | 0.128 | 30.4 | 177000 | 470 | 80 | 470 | 280 | 1.76 | 10.4 | 2.96 | 0.55 | Non-toxic | Non-toxic | 830 | > 1 | < 3.125 | 1.77 | 0.1 |  |
| CCCCCCOc1ccc2c(=O)c3c([nH]c2c1)CCCC3 | 477 | 2.73 | 5.11 | > 200000 | > 20000 | 2820 | > 20000 | > 20000 |  | > 7.09 |  |  |  |  | > 20000 |  | 37.6 |  |  | Activity (Plasmodium berghei [23]): Active; Out Of 5 - 5 Mouse Cured; Activity [18]: Non-toxic; Activity [19]: Non-toxic; Activity [20]: Non-toxic; Activity [21]: Non-toxic; Activity [22]: Non-toxic |
| O=c1c2ccc(OCc3ccc(C(F)(F)F)cc3)cc2[nH]c2cc(Cl)cc(F)c12 | 0.052 | 0.182 | 34.9 | 153000 | 640 | 140 | 910 | 810 | 3.33 | 15.2 | 2.63 | 1.42 | Non-toxic | Non-toxic | 2130 | > 1 | < 3.125 | 2.34 | 0.32 |  |
| COc1cc(C)c2c(Oc3cccc(C(F)(F)F)c3)c(OC)cc(NC(C)CCCN)c2n1 (stereo not drawn) [TAFENOQUINE] |  |  |  |  | 170 | 40 | 7810 | 5440 | 89.4 | 380 | 2.79 |  |  |  | 15200 |  |  | 1.95 |  | Activity (Plasmodium berghei [24]): Not active; Out Of 5 - 0 Mouse Cured |
